Test results taken from PubChem BioAssay AID270 (DTP/NCI, 2004).
Records with an inconclusive call do not appear.

Tested on: BDF1 mice, s.c. Lewis lung carcinoma, T/C %
Assay: NCI In Vivo Anticancer Drug Screen. Data for tumor model Lewis Lung Carcinoma (subcutaneous) in B6D2F1 (BDF1) mice
Outline: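 The value reflects a ratio in which the treated cohort's survival time or tumour size is compared against mice receiving only vehicle.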

**Q.** With CC1(C)N=C(N)N=C(N)N1c1cccc(CC(=O)Nc2ccc(S(=O)(=O)F)cc2)c1 as the compound, how does the T/C (endpoint: median survival time, dose: 25.0 mg/kg/injection, schedule: Q01DX009 (ip), vehicle: Klucel (hydroxypropylcellulose) (HPC), higher = longer survival) read?
**A.** 100 % of control

**Q.** What about the T/C (endpoint: median survival time, dose: 50.0 mg/kg/injection, schedule: Q01DX009 (ip), vehicle: Klucel (hydroxypropylcellulose) (HPC), higher = longer survival) of the same compound?
**A.** 95 % of control

**Q.** What about the T/C (endpoint: median survival time, dose: 100.0 mg/kg/injection, schedule: Q01DX009 (ip), vehicle: Klucel (hydroxypropylcellulose) (HPC), higher = longer survival) of the same compound?
**A.** 98 % of control

**Q.** What about the T/C (endpoint: median survival time, dose: 150.0 mg/kg/injection, schedule: Q01DX009 (ip), vehicle: Klucel (hydroxypropylcellulose) (HPC), higher = longer survival) of the same compound?
**A.** 94 % of control

**Q.** For CC(=O)OC1CCC(NC(=O)N(CCF)N=O)CC1 (stereo not given), which T/C (endpoint: median survival time, dose: 24.0 mg/kg/injection, schedule: Q01DX001 (ip), vehicle: saline with Tween-80, higher = longer survival) is on record?
**A.** 100 % of control

**Q.** What about the T/C (endpoint: median survival time, dose: 36.0 mg/kg/injection, schedule: Q01DX001 (ip), vehicle: saline with Tween-80, higher = longer survival) of the same compound?
**A.** 102 % of control

**Q.** What does the source list for Nc1ncnc2c1ncn2C1OC(CO)C(O)C1O (stereo not given)?
**A.** T/C (endpoint: mean tumor weight, dose: 50.0 mg/kg/injection, schedule: Q01DX011 (ip), vehicle: saline, higher = larger tumour): 108 % of control; T/C (endpoint: mean tumor weight, dose: 100.0 mg/kg/injection, schedule: Q01DX011 (ip), vehicle: saline, higher = larger tumour): 103 % of control; T/C (endpoint: mean tumor weight, dose: 200.0 mg/kg/injection, schedule: Q01DX011 (ip), vehicle: saline, higher = larger tumour): 102 % of control; T/C (endpoint: mean tumor weight, dose: 400.0 mg/kg/injection, schedule: Q01DX011 (ip), vehicle: saline, higher = larger tumour): 93 % of control; T/C (endpoint: median survival time, dose: 70.0 mg/kg/injection, schedule: Q03HX024 (ip), vehicle: saline with Tween-80, higher = longer survival): 94 % of control; T/C (endpoint: median survival time, dose: 80.0 mg/kg/injection, schedule: Q03HX024 (ip), vehicle: saline with Tween-80, higher = longer survival): 98 % of control; T/C (endpoint: median survival time, dose: 160.0 mg/kg/injection, schedule: Q03HX024 (ip), vehicle: saline with Tween-80, higher = longer survival): 104 % of control; T/C (endpoint: median survival time, dose: 240.0 mg/kg/injection, schedule: Q03HX024 (ip), vehicle: saline with Tween-80, higher = longer survival): 86 % of control

**Q.** For CCCCCCC(=O)NC1=C(N2CC2)C(=O)C(NC(=O)CCCCCC)=C(N2CC2)C1=O, which T/C (endpoint: mean tumor weight, dose: 3.8 mg/kg/injection, schedule: Q01DX011 (ip), vehicle: other, higher = larger tumour) is on record?
**A.** 101 % of control

**Q.** What about the T/C (endpoint: mean tumor weight, dose: 7.5 mg/kg/injection, schedule: Q01DX011 (ip), vehicle: other, higher = larger tumour) of the same compound?
**A.** 81 % of control

**Q.** What about the T/C (endpoint: mean tumor weight, dose: 30.0 mg/kg/injection, schedule: Q01DX011 (ip), vehicle: other, higher = larger tumour) of the same compound?
**A.** 78 % of control

**Q.** What about the T/C (endpoint: mean tumor weight, dose: 60.0 mg/kg/injection, schedule: Q01DX011 (ip), vehicle: other, higher = larger tumour) of the same compound?
**A.** 30 % of control

**Q.** Which T/C (endpoint: median survival time, dose: 2.25 mg/kg/injection, schedule: Q01DX009 (ip), vehicle: Klucel (hydroxypropylcellulose) (HPC), higher = longer survival) does the source give for Nc1ccc(N=Nc2ccccc2)c(N)c1 here?
**A.** 109 % of control

**Q.** What about the T/C (endpoint: median survival time, dose: 4.5 mg/kg/injection, schedule: Q01DX009 (ip), vehicle: Klucel (hydroxypropylcellulose) (HPC), higher = longer survival) of the same compound?
**A.** 102 % of control

**Q.** What about the T/C (endpoint: median survival time, dose: 9.0 mg/kg/injection, schedule: Q01DX009 (ip), vehicle: Klucel (hydroxypropylcellulose) (HPC), higher = longer survival) of the same compound?
**A.** 106 % of control

**Q.** What about the T/C (endpoint: median survival time, dose: 18.0 mg/kg/injection, schedule: Q01DX009 (ip), vehicle: Klucel (hydroxypropylcellulose) (HPC), higher = longer survival) of the same compound?
**A.** 101 % of control

**Q.** What about the T/C (endpoint: median survival time, dose: 75.0 mg/kg/injection, schedule: Q01DX009 (ip), vehicle: Klucel (hydroxypropylcellulose) (HPC), higher = longer survival) of the same compound?
**A.** 99 % of control

**Q.** What about the T/C (endpoint: median survival time, dose: 200.0 mg/kg/injection, schedule: Q01DX009 (ip), vehicle: Klucel (hydroxypropylcellulose) (HPC), higher = longer survival) of the same compound?
**A.** 97 % of control

**Q.** What does the source list for O=[N+]([O-])c1ccc2c(N=Nc3ccc4ccccc4c3O)c(O)cc(S(=O)(=O)O)c2c1?
**A.** T/C (endpoint: median survival time, dose: 37.5 mg/kg/injection, schedule: Q01DX009 (ip), vehicle: saline, higher = longer survival): 101 % of control; T/C (endpoint: median survival time, dose: 75.0 mg/kg/injection, schedule: Q01DX009 (ip), vehicle: saline, higher = longer survival): 109 % of control; T/C (endpoint: median survival time, dose: 150.0 mg/kg/injection, schedule: Q01DX009 (ip), vehicle: saline, higher = longer survival): 94 % of control

**Q.** Which T/C (endpoint: median survival time, dose: 16.0 mg/kg/injection, schedule: Q01DX001 (ip), vehicle: saline with Tween-80, higher = longer survival) does the source give for COC1CCC(NC(=O)N(CCCl)N=O)CC1 (stereo not given) here?
**A.** 121 % of control

**Q.** What about the T/C (endpoint: median survival time, dose: 82.0 mg/kg/injection, schedule: Q01DX001 (ip), vehicle: saline with Tween-80, higher = longer survival) of the same compound?
**A.** 111 % of control

**Q.** What does the source list for COc1cc(C(=O)OC2CC34CCNC35CC(OC5(OC)C2O)c2cc3c(cc24)OCO3)ccc1O (stereo not given)?
**A.** T/C (endpoint: mean tumor weight, dose: 0.25 mg/kg/injection, schedule: Q01DX011 (ip), vehicle: carboxymethylcellulose (CMC), higher = larger tumour): 41 % of control; T/C (endpoint: mean tumor weight, dose: 0.5 mg/kg/injection, schedule: Q01DX011 (ip), vehicle: carboxymethylcellulose (CMC), higher = larger tumour): 50 % of control; T/C (endpoint: mean tumor weight, dose: 1.0 mg/kg/injection, schedule: Q01DX011 (ip), vehicle: carboxymethylcellulose (CMC), higher = larger tumour): 87 % of control

**Q.** For CC(=O)N(C)C(C(=O)N1CC(C)CC1C(=O)N(C)C1C(=O)NC(CC(C)C)C(=O)N2CC(C)CC2C(=O)NC(CC(C)C)C(=O)N(C)C(C(C)C)C(=O)N2CCCC2C(=O)N(C)C(CC(C)C)C(=O)NCC(=O)OC1C)C(C)C (stereo not given), which T/C (endpoint: median survival time, dose: 9.4 mg/kg/injection, schedule: Q01DX009 (ip), vehicle: Klucel (hydroxypropylcellulose) (HPC), higher = longer survival) is on record?
**A.** 94 % of control

**Q.** And the T/C (endpoint: median survival time, dose: 18.75 mg/kg/injection, schedule: Q01DX009 (ip), vehicle: Klucel (hydroxypropylcellulose) (HPC), higher = longer survival)?
**A.** 98 % of control

**Q.** And the T/C (endpoint: median survival time, dose: 37.5 mg/kg/injection, schedule: Q01DX009 (ip), vehicle: Klucel (hydroxypropylcellulose) (HPC), higher = longer survival)?
**A.** 96 % of control
